# Test results from patent publication US12357619B2, “Noradrenergic and specific serotonergic anxiolytic and antidepressant, method for the production and use thereof” (ALLA CHEM, LLC, priority 2020, dated 2025).
# Tests used:
# volunteers = assay: Safety of increasing doses, single and multiple dosing of capsules in volunteers (Example 11); assay type: in vivo, human
# Protocol: Example 11. Safety study of increasing doses of the oral drug of this invention made as a pharmaceutical composition of this invention in capsules. Clinical safety study of increasing doses of the antipsychotic drug made as a pharmaceutical composition of this invention in capsules for single and multiple dosing. The study covered one cohort of 4 volunteers taking antipsychotic drug once at a dose of 20 mg, and then at the same dose 2 times a day for 4 days. Based on the three-week safety data obtained in the 20-mg cohort taking antipsychotic drug twice a day, the independent safety data monitoring Committee took a decision to involve a second cohort of 4 volunteers, in which the antipsychotic drug under test was taken once at a dose of 20 mg and then 3 times a day for 4 days at the same dose.
# [1] = test system: people with generalized anxiety disorder (GAD); assay: Randomized double-blind placebo-controlled GAD study, clinical global impression-improvement (CGI-I); assay type: in vivo, human; conditions: after 8 weeks
# Protocol: Example 12. Efficacy and safety study of the oral drug of this invention made as a pharmaceutical composition of this invention in capsules. […] During the study, 3 scheduled visits were conducted in Week 2, Week 4, and Week 8 to assess the effectiveness and safety of the therapy as well as drug inventory and administration. During all of those visits, the patient's diary was checked, a drug inventory was made and the patients' compliance was assessed. In addition, adverse events, concomitant therapy, and vital signs were evaluated, urine drug screen was performed, and assessments using Hamilton Anxiety Rating Scale (HARS), Hamilton Depression Scale (HAMD), Clinical Global Impression-Severity (CGI-S), Clinical Global Impression-Improvement (CGI-I), and Visual Analog Scale (VAS) were made; women of child-bearing potential will take a urine pregnancy test. Also, during visits at Week 4 and Week 8 a physical examination was performed, body weight was measured, an ECG was performed in 12 leads and blood and urine samples were obtained for laboratory tests, namely: urinalysis and biochemical blood analysis, PK analysis before and 1 hour after taking the study drug (SD), and urinalysis. At Week 4, a blood sample was also obtained for genotyping by CYP2D6. […] During this time, a possible development of SD withdrawal syndrome against the background of placebo was evaluated. […]
# [2] = test system: people with generalized anxiety disorder (GAD); assay: Randomized double-blind placebo-controlled GAD study, Hamilton anxiety scale (HARS); assay type: in vivo, human; conditions: for HARS average change (standard error): after 8 weeks; for Patients who attained a 50% HARS total score reduction at Week 8, percentage / Patients who attained a 50% HARS total score reduction at Week 8, X (number): MITT population
# Protocol: (§1) Example 12. Efficacy and safety study of the oral drug of this invention made as a pharmaceutical composition of this invention in capsules. […] During the study, 3 scheduled visits were conducted in Week 2, Week 4, and Week 8 to assess the effectiveness and safety of the therapy as well as drug inventory and administration. During all of those visits, the patient's diary was checked, a drug inventory was made and the patients' compliance was assessed. In addition, adverse events, concomitant therapy, and vital signs were evaluated, urine drug screen was performed, and assessments using Hamilton Anxiety Rating Scale (HARS), Hamilton Depression Scale (HAMD), Clinical Global Impression-Severity (CGI-S), Clinical Global Impression-Improvement (CGI-I), and Visual Analog Scale (VAS) were made; women of child-bearing potential will take a urine pregnancy test. Also, during visits at Week 4 and Week 8 a physical examination was performed, body weight was measured, an ECG was performed in 12 leads and blood and urine samples were obtained for laboratory tests, namely: urinalysis and biochemical blood analysis, PK analysis before and 1 hour after taking the study drug (SD), and urinalysis. At Week 4, a blood sample was also obtained for genotyping by CYP2D6. At Week 8, treatment in the groups was completed, and all patients were prescribed a placebo to be taken during the follow-up period, which lasted 1 week. During this time, a possible development of SD withdrawal syndrome against the background of placebo was evaluated. During the visit at Week 9, the patient's diary was checked, a drug inventory was made and the patients' compliance was assessed. In addition, adverse events, concomitant therapy, and vital signs were evaluated, urine drug screen was performed, and assessments using the Hamilton Anxiety Rating Scale (HARS), Hamilton Depression Scale (HAMD), Clinical Global Impression-Severity (CGI-S), Clinical Global Impression-Improvement (CGI-I), and Visual Analog Scale (VAS) were made; women of child-bearing age will take a urine pregnancy test. At this point, the patients' participation in the study was completed, and they received recommendations for further treatment as part of standard GAD therapy.
# Serotonin 5-HT7 = Serotonin 5-HT7 (Homo sapiens, UniProt P34969); assay: Receptor activities, Ki (Table 1); assay type: binding
# [3] = test system: people with generalized anxiety disorder (GAD); assay: Randomized double-blind placebo-controlled GAD study, adverse events; assay type: in vivo, human
# Protocol: as §1
# [4] = 20 mg once, then 20 mg 2 or 3 times a day for 4 days
# Chain of Serotonin 5-HT7 (P34969 whole entry): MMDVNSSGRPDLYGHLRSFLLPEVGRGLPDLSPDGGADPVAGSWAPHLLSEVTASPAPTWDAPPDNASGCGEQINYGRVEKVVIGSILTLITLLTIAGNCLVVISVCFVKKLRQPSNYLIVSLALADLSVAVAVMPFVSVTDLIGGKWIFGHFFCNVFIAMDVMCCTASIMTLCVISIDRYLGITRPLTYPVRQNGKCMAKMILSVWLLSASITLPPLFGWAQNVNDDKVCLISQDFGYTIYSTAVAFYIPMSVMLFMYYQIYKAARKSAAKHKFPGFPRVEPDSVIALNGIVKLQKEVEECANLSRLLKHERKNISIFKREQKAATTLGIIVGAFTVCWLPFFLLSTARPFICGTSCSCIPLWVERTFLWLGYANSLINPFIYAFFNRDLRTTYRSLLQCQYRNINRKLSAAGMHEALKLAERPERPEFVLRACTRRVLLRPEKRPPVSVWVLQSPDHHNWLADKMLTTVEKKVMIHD
compound,measurement,setting,value
"Cc1ccc2c(c1)c1c(n2CCc2ccccc2)CCN(C)C1.Cl [A•HCl, 2,8-dimethyl-5-(2-phenylethyl)-2,3,4,5-tetrahydro-1H-pyrido[4,3-b]indole hydrochloride]",Adverse events associated with taking the drug,volunteers; [4],did not reveal any adverse events (AEs) associated with taking the drug
same,Safety profile and tolerability,volunteers; [4],favorable safety profile and good tolerability
same,Occurrence of AE by daily dose,volunteers; 40 mg and 60 mg daily dose cohorts,AE were observed only in volunteers who received a daily dose of 60 mg
same,CGI-I average change (standard error),"[1]; 40 mg, N = 42, average at Week 0 4.00",−1.63 (0.14)
same,CGI-I average change (standard error),"[1]; 60 mg, N = 44, average at Week 0 4.03",−1.68 (0.14)
same,HARS average change (standard error),"[2]; 40 mg, N = 42, average at Week 0 26.9",−13.4 (1.37)
same,HARS average change (standard error),"[2]; 60 mg, N = 44, average at Week 0 26.5",−12.9 (1.37)
same,"Patients who attained a 50% HARS total score reduction at Week 8, percentage","[2]; Dose 60 mg, N = 40",(55.0%)
same,"Patients who attained a 50% HARS total score reduction at Week 8, X (number)","[2]; Dose 60 mg, N = 40, of Y = 40 patients",22
same,"Patients who attained a 50% HARS total score reduction at Week 8, percentage","[2]; printed Dose 60 mg, N = 42",(47.6%)
same,"Patients who attained a 50% HARS total score reduction at Week 8, X (number)","[2]; printed Dose 60 mg, N = 42, of Y = 42 patients",20
same,Ki,Serotonin 5-HT7,0.153 nM
same,"Adverse effect Bitter taste in mouth, pain in the left hypochondrium, %","[3]; 40 mg/day, 42 patients",0.0%
same,"Adverse effect Bitter taste in mouth, pain in the left hypochondrium, N (number of people)","[3]; 40 mg/day, 42 patients",0
same,"Adverse effect Constipation, %","[3]; 40 mg/day, 42 patients",0.0%
same,"Adverse effect Constipation, N (number of people)","[3]; 40 mg/day, 42 patients",0
same,"Adverse effect Daytime drowsiness, %","[3]; 40 mg/day, 42 patients",2.4%
same,"Adverse effect Daytime drowsiness, N (number of people)","[3]; 40 mg/day, 42 patients",1
same,"Adverse effect Decreased appetite, %","[3]; 40 mg/day, 42 patients",2.4%
same,"Adverse effect Decreased appetite, N (number of people)","[3]; 40 mg/day, 42 patients",1
same,"Adverse effect Dizziness, %","[3]; 40 mg/day, 42 patients",0.0%
same,"Adverse effect Dizziness, N (number of people)","[3]; 40 mg/day, 42 patients",0
same,"Adverse effect Elevated creatinine kinase level, %","[3]; 40 mg/day, 42 patients",0.0%
same,"Adverse effect Elevated creatinine kinase level, N (number of people)","[3]; 40 mg/day, 42 patients",0
same,"Adverse effect Headache, %","[3]; 40 mg/day, 42 patients",4.8%
same,"Adverse effect Headache, N (number of people)","[3]; 40 mg/day, 42 patients",2
same,"Adverse effect Impaired concentration, %","[3]; 40 mg/day, 42 patients",0.0%
same,"Adverse effect Impaired concentration, N (number of people)","[3]; 40 mg/day, 42 patients",0
same,"Adverse effect Increased psychic tension, %","[3]; 40 mg/day, 42 patients",0.0%
same,"Adverse effect Increased psychic tension, N (number of people)","[3]; 40 mg/day, 42 patients",0
same,"Adverse effect Insomnia, %","[3]; 40 mg/day, 42 patients",2.4%
same,"Adverse effect Insomnia, N (number of people)","[3]; 40 mg/day, 42 patients",1
same,"Adverse effect Jaw reduction, %","[3]; 40 mg/day, 42 patients",0.0%
same,"Adverse effect Jaw reduction, N (number of people)","[3]; 40 mg/day, 42 patients",0
same,"Adverse effect Low hemoglobin level, %","[3]; 40 mg/day, 42 patients",2.4%
same,"Adverse effect Low hemoglobin level, N (number of people)","[3]; 40 mg/day, 42 patients",1
same,"Adverse effect Nausea, %","[3]; 40 mg/day, 42 patients",0.0%
same,"Adverse effect Nausea, N (number of people)","[3]; 40 mg/day, 42 patients",0
same,"Adverse effect Nocturnal awakening, %","[3]; 40 mg/day, 42 patients",0.0%
same,"Adverse effect Nocturnal awakening, N (number of people)","[3]; 40 mg/day, 42 patients",0
same,"Adverse effect Sleepiness, %","[3]; 40 mg/day, 42 patients",2.4%
same,"Adverse effect Sleepiness, N (number of people)","[3]; 40 mg/day, 42 patients",1
same,"Adverse effect Tension in the body (back, arms, legs), %","[3]; 40 mg/day, 42 patients",0.0%
same,"Adverse effect Tension in the body (back, arms, legs), N (number of people)","[3]; 40 mg/day, 42 patients",0
same,"Adverse effect Tingling in the hands, %","[3]; 40 mg/day, 42 patients",0.0%
same,"Adverse effect Tingling in the hands, N (number of people)","[3]; 40 mg/day, 42 patients",0
same,"Adverse effect Weakness, %","[3]; 40 mg/day, 42 patients",0.0%
same,"Adverse effect Weakness, N (number of people)","[3]; 40 mg/day, 42 patients",0
same,"Adverse effect Bitter taste in mouth, pain in the left hypochondrium, %","[3]; 60 mg/day, 44 patients",2.3%
same,"Adverse effect Bitter taste in mouth, pain in the left hypochondrium, N (number of people)","[3]; 60 mg/day, 44 patients",1
same,"Adverse effect Constipation, %","[3]; 60 mg/day, 44 patients",2.3%
same,"Adverse effect Constipation, N (number of people)","[3]; 60 mg/day, 44 patients",1
same,"Adverse effect Daytime drowsiness, %","[3]; 60 mg/day, 44 patients",0.0%
same,"Adverse effect Daytime drowsiness, N (number of people)","[3]; 60 mg/day, 44 patients",0
same,"Adverse effect Decreased appetite, %","[3]; 60 mg/day, 44 patients",0.0%
same,"Adverse effect Decreased appetite, N (number of people)","[3]; 60 mg/day, 44 patients",0
same,"Adverse effect Dizziness, %","[3]; 60 mg/day, 44 patients",9.1%
same,"Adverse effect Dizziness, N (number of people)","[3]; 60 mg/day, 44 patients",4
same,"Adverse effect Elevated creatinine kinase level, %","[3]; 60 mg/day, 44 patients",2.3%
same,"Adverse effect Elevated creatinine kinase level, N (number of people)","[3]; 60 mg/day, 44 patients",1
same,"Adverse effect Headache, %","[3]; 60 mg/day, 44 patients",13.6%
same,"Adverse effect Headache, N (number of people)","[3]; 60 mg/day, 44 patients",6
same,"Adverse effect Impaired concentration, %","[3]; 60 mg/day, 44 patients",2.3%
same,"Adverse effect Impaired concentration, N (number of people)","[3]; 60 mg/day, 44 patients",1
same,"Adverse effect Increased psychic tension, %","[3]; 60 mg/day, 44 patients",4.5%
same,"Adverse effect Increased psychic tension, N (number of people)","[3]; 60 mg/day, 44 patients",2
same,"Adverse effect Insomnia, %","[3]; 60 mg/day, 44 patients",0.0%
same,"Adverse effect Insomnia, N (number of people)","[3]; 60 mg/day, 44 patients",0
same,"Adverse effect Jaw reduction, %","[3]; 60 mg/day, 44 patients",2.3%
same,"Adverse effect Jaw reduction, N (number of people)","[3]; 60 mg/day, 44 patients",1
same,"Adverse effect Low hemoglobin level, %","[3]; 60 mg/day, 44 patients",0.0%
same,"Adverse effect Low hemoglobin level, N (number of people)","[3]; 60 mg/day, 44 patients",0
same,"Adverse effect Nausea, %","[3]; 60 mg/day, 44 patients",4.5%
same,"Adverse effect Nausea, N (number of people)","[3]; 60 mg/day, 44 patients",2
same,"Adverse effect Nocturnal awakening, %","[3]; 60 mg/day, 44 patients",2.3%
same,"Adverse effect Nocturnal awakening, N (number of people)","[3]; 60 mg/day, 44 patients",1
same,"Adverse effect Sleepiness, %","[3]; 60 mg/day, 44 patients",15.9%
same,"Adverse effect Sleepiness, N (number of people)","[3]; 60 mg/day, 44 patients",7
same,"Adverse effect Tension in the body (back, arms, legs), %","[3]; 60 mg/day, 44 patients",2.3%
same,"Adverse effect Tension in the body (back, arms, legs), N (number of people)","[3]; 60 mg/day, 44 patients",1
same,"Adverse effect Tingling in the hands, %","[3]; 60 mg/day, 44 patients",2.3%
same,"Adverse effect Tingling in the hands, N (number of people)","[3]; 60 mg/day, 44 patients",1
same,"Adverse effect Weakness, %","[3]; 60 mg/day, 44 patients",6.8%
same,"Adverse effect Weakness, N (number of people)","[3]; 60 mg/day, 44 patients",3
same,Safety profile and tolerability in patients,"[3]; GAD patients, 40 and 60 mg/day, 8 weeks",favorable safety profile and good tolerability
same,Side effects observed,"[3]; dose of 60 mg, GAD patients","headache, drowsiness, dizziness, weakness, nausea, increased anxiety"
